Assay results published in patent US9187426B2, “Organic compounds” (Novartis AG, priority 2008, dated 2015).
Counter-ions that a name gives are not always drawn.

What was measured:
[1] = molecular target: T1, Stearoyl-CoA Desaturase (SCD1) (Mus musculus, UniProt P13516); assay: SCD microsomal assay: release of 3H2O from [9,10-3H]stearoyl-CoA in mouse liver microsomes; type: biochemical; details: 15 min incubation, 25° C.
T1 construct: Reactions are started by adding 50 μL of microsomes (1.25 mg/mL); from tissue; host or cells: liver microsomes of male ICR outbred mice on a high-carbohydrate, low-fat diet
T1 sequence (P13516 1-355): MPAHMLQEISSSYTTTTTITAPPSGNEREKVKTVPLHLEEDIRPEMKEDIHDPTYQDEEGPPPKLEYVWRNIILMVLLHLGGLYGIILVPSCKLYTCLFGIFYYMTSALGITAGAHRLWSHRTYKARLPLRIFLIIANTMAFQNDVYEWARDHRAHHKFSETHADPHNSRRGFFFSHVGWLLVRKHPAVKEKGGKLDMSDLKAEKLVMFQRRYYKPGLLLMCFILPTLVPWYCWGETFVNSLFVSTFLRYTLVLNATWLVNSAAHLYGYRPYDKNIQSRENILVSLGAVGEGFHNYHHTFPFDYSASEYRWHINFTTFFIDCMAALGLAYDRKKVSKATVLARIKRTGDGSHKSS
Text: Measuring Stearoyl-CoA Desaturase Inhibition Activity of a Test Compound Using Mouse Liver Microsomes
The identification of compounds of the invention as SCD inhibitors was readily accomplished using the SCD microsomal assay procedure described in Shanklin J. and Summerville C., Proc. Natl. Acad. Sci. USA (1991), Vol. 88, pp. 2510-2514.
Male ICR outbread mice, on a high-carbohydrate, low fat diet, under light halothane (15% in mineral oil) anesthesia are sacrificed by exsanguination during periods of high enzyme activity. Livers are immediately rinsed with cold 0.9% NaCl solution, weighed and minced with scissors. All procedures are performed at 4° C. unless specified otherwise. Livers are homogenized in a solution (1/3 w/v) containing 0.25 M sucrose, 62 mM potassium phosphate buffer (pH 7.0), 0.15 M KCl, 15 mM N-acetyleysteine, 5 mM MgCl2, and 0.1 mM EDTA using 4 strokes of a Potter-Elvehjem tissue homogenizer. The homogenate is centrifuged at 10,400×g for 20 min to eliminate mitochondria and cellular debris. The supernatant is filtered through a 3-layer cheesecloth and centrifuged at 105,000×g for 60 min. The microsomal pellet is gently resuspended in the same homogenization solution with a small glass/teflon homogenizer and stored at −70° C. The absence of mitochondrial contamination is enzymatically assessed. The protein concentration is measured using bovine serum albumin as the standard.
Desaturase activity is measured as the release of ^3H2O from [9,10-^3H]stearoyl-CoA. Reactions per assay point conditions are as follows: 2 μL 1.5 mM stearoyl-CoA, 0.25 μL 1 mCi/mL ^3H stearoyl CoA, 10 μL 20 mM NADH, 36.75 μL 0.1 M PK buffer (K2HPO4/NaH2PO4, pH 7.2). The test compound or control solution is added in a 1 μL volume. Reactions are started by adding 50 μL of microsomes (1.25 mg/mL). The plates are mixed and after 15 min incubation on a heating block (25° C.), the reactions are stopped by the addition of 10 μL 60% PCA. An aliquot of 100 μL is then transferred to a filter plate pretreated with charcoal and the plate centrifuged at 4000 rpm for 1 minute. The flow through containing the ^3H2O released by the SCD1 desaturation reaction is added to scintillation fluid and the radioactivity measured in a Packard TopCount. The data is analysed to identify the IC50 for test compounds and reference compounds.

IC50 [1] | melting point | Compound
10 nM | 163 to 165 °C | O=C(NCc1cncs1)c1ccnc(N2CCN(Cc3ccc(C(F)(F)F)cc3)C2=O)c1 [Example 26.19, 2-(2-Oxo-3-(4-(trifluoromethyl)benzyl)imidazolidin-1-yl)-N-(thiazol-5-ylmethyl)-isonicotinamide]
260 nM | 178 to 180 °C | O=C(NCc1ccc(F)c(F)c1)c1ccnc(N2CCN(Cc3cccnc3)C2=O)c1 [Example 15.17, N-(3,4-difluorobenzyl)-2-(2-oxo-3-(pyridin-3-ylmethyl)imidazolidin-1-yl)isonicotinamide]
120 nM | 181 to 183 °C | O=C(NCc1ccccn1)c1ccnc(-n2cnn(Cc3ccc(F)cc3)c2=O)c1 [Example 26.27, 2-(1-(4-Fluorobenzyl)-5-oxo-1H-1,2,4-triazol-4(5H)-yl)-N-(pyridin-2-ylmethyl)-isonicotinamide]
10 nM | 129 to 130 °C | Cc1cc(CNC(=O)c2ccnc(N3CCN(Cc4ccc(OC(F)(F)F)cc4)C3=O)c2)no1 [Example 26.13, N-((5-Methylisoxazol-3-yl)methyl)-2-(2-oxo-3-(4-(trifluoromethoxy)-benzyl)imidazolidin-1-yl)isonicotinamide]
670 nM | 160 to 162 °C | O=C(NCc1ccncc1)c1ccnc(N2CCN(CC3CC3)C2=O)c1 [Example 15.11, 2-(3-(cyclopropylmethyl)-2-oxoimidazolidin-1-yl)-N-(pyridin-4-ylmethyl)isonicotinamide]
20 nM | 160 to 165 °C | CN(C)c1ccc(C(=O)Nc2cc(C(=O)NCc3ccccc3)ccn2)cc1 [Example 6.11, N-benzyl-2-(4-(dimethylamino)benzamido)isonicotinamide]
10 nM | 198 to 200 °C | Cc1cc(CNC(=O)c2ccnc(-n3cnn(Cc4ccc(F)cc4)c3=O)c2)no1 [Example 26.22, 2-(1-(4-Fluorobenzyl)-5-oxo-1H-1,2,4-triazol-4(5H)-yl)-N-((5-methylisoxazol-3-yl)methyl)-isonicotinamide]
20 nM | 160 to 161 °C | Cc1cc(CNC(=O)c2ccnc(-n3cnn(Cc4ccc(F)c(F)c4)c3=O)c2)no1 [Example 24, 2-(1-(3,4-Difluorobenzyl)-5-oxo-1H-1,2,4-triazol-4(5H)-yl)-N-((5-methylisoxazol-3-yl)methyl)-isonicotinamide]
70 nM | – | O=C(NCc1ccccn1)c1ccnc(N2CCN(Cc3ccc(F)cc3)C2=O)c1 [Example 15.3, 2-(3-(4-fluorobenzyl)-2-oxoimidazolidin-1-yl)-N-(pyridin-2-ylmethyl)isonicotinamide dihydrochloride]
– | 115 to 117 °C | CC(NC(=O)c1ccnc(N2CCN(Cc3ccc(F)cc3)C2=O)c1)c1ccccc1 (centres unmarked) [Example 26.6, 2-(3-(4-Fluorobenzyl)-2-oxoimidazolidin-1-yl)-N-(1-phenylethyl)-isonicotinamide]
– | 187 to 189 °C | O=C(Nc1cc(-c2nnc(Cc3ccccc3)o2)ccn1)c1ccccc1 [Example 11.1, N-[4-(5-benzyl-[1,3,4]oxadiazol-2-yl)-pyridin-2-yl]benzamide]
30 nM | – | O=C(NCc1ccccn1)c1ccnc(-n2cnn(Cc3ccc(F)c(F)c3)c2=O)c1 [Example 26.29, 2-(1-(3,4-Difluorobenzyl)-5-oxo-1H-1,2,4-triazol-4(5H)-yl)-N-(pyridin-2-ylmethyl)-isonicotinamide]
– | 161 to 163 °C | O=C(NCc1nccs1)c1ccnc(-n2cnn(Cc3ccc(F)c(F)c3)c2=O)c1 [Example 26.28, 2-(1-(3,4-Difluorobenzyl)-5-oxo-1H-1,2,4-triazol-4(5H)-yl)-N-(thiazol-2-ylmethyl)-isonicotinamide]
– | 134 to 136 °C | O=C(NCc1ccc(F)c(F)c1)c1ccnc(N2CCN(CC3CC3)C2=O)c1 [Example 15.12, 2-(3-(cyclopropylmethyl)-2-oxoimidazolidin-1-yl)-N-(3,4-difluorobenzyl)isonicotinamide]
– | 105 to 107 °C | O=C(NCc1nccs1)c1ccnc(N2CCN(Cc3ccc(F)c(F)c3)C2=O)c1 [Example 26.25, 2-(3-(3,4-Difluorobenzyl)-2-oxoimidazolidin-1-yl)-N-(thiazol-2-ylmethyl)-isonicotinamide]
– | 257 °C (dec.) | O=C(NCc1ccccc1)c1cc(O)nc(NC(=O)c2ccccc2)c1 [Example 8, 2-benzamido-N-benzyl-6-hydroxyisonicotinamide]
– | 161 to 163 °C | O=C(NCc1ccc(F)cc1)c1ccnc(N2CCN(Cc3ccncc3)C2=O)c1 [Example 15.16, N-(4-fluorobenzyl)-2-(2-oxo-3-(pyridin-4-ylmethyl)imidazolidin-1-yl)isonicotinamide]
– | 118 to 120 °C | CNC(=O)c1ccnc(N2CCN(Cc3ccc(F)cc3)C2=O)c1 [Example 13, 2-(3-(4-fluorobenzyl)-2-oxoimidazolidin-1-yl)-N-methylisonicotinamide]
– | 161 to 163 °C | O=C(NCc1ccccn1)c1cc(N2CCN(Cc3ccc(F)cc3)C2=O)nc2ccccc12 [Example 26.8, 2-(3-(4-Fluorobenzyl)-2-oxoimidazolidin-1-yl)-N-(pyridin-2-ylmethyl)quinoline-4-carboxamide]
– | 174 to 176 °C | O=C(NCc1ccccc1)c1ccnc(NC(=O)c2ccccc2)c1 [Example 5, 2-benzamido-N-benzylisonicotinamide]
– | 143 to 145 °C | O=C(NCc1ccc(F)c(F)c1)c1ccnc(N2CCN(Cc3ccccn3)C2=O)c1 [Example 15.18, N-(3,4-difluorobenzyl)-2-(2-oxo-3-(pyridin-2-ylmethyl)imidazolidin-1-yl)isonicotinamide]
– | 151 to 153 °C | O=C(NCc1ccccc1)c1ccnc(NC(=O)c2ccc(OC(F)(F)F)cc2)c1 [Example 5.1, N-benzyl-2-(4-trifluoromethoxybenzoylamino)isonicotinamide]
– | 198 to 201 °C | O=C(NCc1ccccc1)c1cc[n+]([O-])c(NC(=O)c2ccccc2)c1 [Example 7, 2-benzamido-N-benzylisonicotinamide-1-N-oxide]
– | 121 to 123 °C | O=C(NCc1ccccc1)c1ccnc(N2CCN(CC3CC3)C2=O)c1 [Example 15.8, N-benzyl-2-(3-(cyclopropylmethyl)-2-oxoimidazolidin-1-yl)isonicotinamide]
– | 185 to 186 °C | O=C(NCc1cnc(Cl)s1)c1ccnc(N2CCN(Cc3ccc(F)cc3)C2=O)c1 [Example 26.11, N-((2-Chlorothiazol-5-yl)methyl)-2-(3-(4-fluorobenzyl)-2-oxoimidazolidin-1-yl)isonicotinamide]
– | 122 to 123 °C | O=C(NCc1ccccn1)c1ccnc(N2CCN(CC3CC3)C2=O)c1 [Example 15.10, 2-(3-(cyclopropylmethyl)-2-oxoimidazolidin-1-yl)-N-(pyridin-2-ylmethyl)isonicotinamide]
– | 111 to 113 °C | O=C(NCc1cncs1)c1ccnc(N2CCN(Cc3ccc(F)c(F)c3)C2=O)c1 [Example 26.24, 2-(3-(3,4-Difluorobenzyl)-2-oxoimidazolidin-1-yl)-N-(thiazol-5-ylmethyl)-isonicotinamide]
– | 205 to 207 °C | COc1ccccc1C(=O)Nc1cc(C(=O)NCc2ccccc2)ccn1 [Example 6.6, N-benzyl-2-(2-methoxybenzamido)isonicotinamide]
– | 179 to 181 °C | Cc1nn(C)c(C)c1CNC(=O)c1ccnc(N2CCN(Cc3ccc(F)cc3)C2=O)c1 [Example 14.7, 2-(3-(4-fluorobenzyl)-2-oxoimidazolidin-1-yl)-N-((1,3,5-trimethyl-1H-pyrazol-4-yl)methyl)isonicotinamide]
– | 170 to 171 °C | CS(=O)(=O)c1cccc(C(=O)Nc2cc(C(=O)NCc3ccccc3)ccn2)c1 [Example 6.13, N-benzyl-2-(3-(methylsulfonyl)benzamido)isonicotinamide]
